Measured values: patent US7973061B2, “Anaplastic lymphoma kinase modulators and methods of use” (Exelixis, Inc., priority 2004, dated 2011)
pIC50: −log10 of the molar value.

Molecular target: T1, ALK (baculovirus expressed human ALK kinase domain F1098-K1410) (Homo sapiens, UniProt Q9UM73)
T1 construct: human ALK kinase domain F1098-K1410; made in house
Assay: biochemical
Conditions: 1 μM ATP, 4 μM poly-AEKY, 12 nM ALK, 2 hours at ambient temperature; read-out: ALK IC50
Outline: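 Baculovirus-expressed human ALK kinase domain (F1098-K1410) was run in a luciferase-coupled chemiluminescent format, with ATP near its KM. After 2 h at ambient temperature, remaining ATP was read by luciferase-luciferin luminescence. IC50 came from 10-point dose-response curves fitted to a four-parameter equation with Hill slope.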

T1 sequence (Q9UM73 1098-1410): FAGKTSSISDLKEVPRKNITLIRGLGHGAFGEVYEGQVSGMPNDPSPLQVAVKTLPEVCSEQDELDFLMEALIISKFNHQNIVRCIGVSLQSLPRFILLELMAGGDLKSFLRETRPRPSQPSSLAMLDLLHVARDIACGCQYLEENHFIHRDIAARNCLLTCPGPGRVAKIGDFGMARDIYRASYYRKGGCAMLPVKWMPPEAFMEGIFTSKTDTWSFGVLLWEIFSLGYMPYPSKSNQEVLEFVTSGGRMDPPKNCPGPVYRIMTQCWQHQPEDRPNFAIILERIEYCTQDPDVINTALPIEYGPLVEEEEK

How did the pIC50 turn out when CCC1COC(C)(CCC(C)C)N1C(=O)c1csc(CNC(=O)COc2ccc(OC(F)(F)F)cc2)n1 (stereo not shown) [Entry 310, N-[(4-{[4-ethyl-2-methyl-2-(3-methylbutyl)-1,3-oxazolidin-3-yl]carbonyl}-1,3-thiazol-2-yl)methyl]-2-({4-[(trifluoromethyl)oxy]phenyl}oxy)acetamide] was run?
Its pIC50 is under 5.70.

With O=C(COc1ccc(OC(F)(F)F)cc1)NCc1nc(C(=O)NCCc2cccc(C(F)(F)F)c2)co1 [Entry 181, 2-({[({4-[(trifluoromethyl)oxy]phenyl}oxy)acetyl]amino}methyl)-N-{2-[3-(trifluoromethyl)phenyl]ethyl}-1,3-oxazole-4-carboxamide] as the molecule, how does the pIC50 read?
The pIC50 was 6.30 to 7.30.

With CSCC[C@H](NC(=O)c1ccccc1)C(=O)NCc1nc(C(=O)NCCc2cccc(Cl)c2)cs1 [Entry 221, N-{[4-({[2-(3-chlorophenyl)ethyl]amino}carbonyl)-1,3-thiazol-2-yl]methyl}-N~2~-(phenylcarbonyl)methioninamide] as the molecule, how does the pIC50 read?
Its pIC50 is 5.70 to 6.30.

How did the pIC50 turn out when O=C(COc1ccc(I)cc1)NCc1nc(C(=O)NCCc2cccc(Cl)c2)cs1 [Entry 16, N-[2-(3-chlorophenyl)ethyl]-2-[({[(4-iodophenyl)oxy]acetyl}amino)methyl]-1,3-thiazole-4-carboxamide] was run?
The pIC50 was over 7.30.

How did the pIC50 turn out when CCN(CC)C(=O)C1CCCN(C(=O)c2csc(CNC(=O)COc3ccc(OC(F)(F)F)cc3)n2)C1 (stereo not shown) [Entry 270, N,N-diethyl-1-{[2-({[({4-[(trifluoromethyl)oxy]phenyl}oxy)acetyl]amino}methyl)-1,3-thiazol-4-yl]carbonyl}piperidine-3-carboxamide] was run?
The pIC50 was 5.70 to 6.30.

How did the pIC50 turn out when O=C(COc1ccc(OC(F)(F)F)cc1)NCc1nc(C(=O)NCCc2ccccc2F)cs1 [Entry 5, N-[2-(2-fluorophenyl)ethyl]-2-({[({4-[(trifluoromethyl)oxy]phenyl}oxy)acetyl]amino}methyl)-1,3-thiazole-4-carboxamide] was run?
The pIC50 was over 7.30.

How did the pIC50 turn out when CO[C@@H]1[C@@H](C)/C=C(\C)[C@H](OC(N)=O)[C@@H](OC)/C=C\C=C(/C)C(=O)NC2=CC(=O)C=C(C2=O)[C@H](OC)[C@@H](C)C[C@H]1OC [Entry 301, (4E,6Z,8S,9S,10E,12S,13R,14R,16S,17R)-4,10,12,16-tetramethyl-8,13,14,17-tetrakis(methyloxy)-3,20,22-trioxo-2-azabicyclo[16.3.1]docosa-1(21),4,6,10,18-pentaen-9-yl carbamate, reference compound] was run?
Its pIC50 is under 5.70.

How did the pIC50 turn out when CCCCC(CC)COCCCNC(=O)c1csc(CNC(=O)COc2ccc(OC(F)(F)F)cc2)n1 (stereo not shown) [Entry 100, N-{3-[(2-ethylhexyl)oxy]propyl}-2-({[({4-[(trifluoromethyl)oxy]phenyl}oxy)acetyl]amino}methyl)-1,3-thiazole-4-carboxamide] was run?
Its pIC50 is 6.30 to 7.30.

How did the pIC50 turn out when O=C(COc1ccc(OC(F)(F)F)cc1)NCc1nc(C(=O)NCc2cccc(C(F)(F)F)c2F)cs1 [Entry 158, N-{[2-fluoro-3-(trifluoromethyl)phenyl]methyl}-2-({[({4-[(trifluoromethyl)oxy]phenyl}oxy)acetyl]amino}methyl)-1,3-thiazole-4-carboxamide] was run?
The pIC50 was 6.30 to 7.30.

With CCOc1cccc(CCNC(=O)c2csc(CNC(=O)COc3ccc(OC(F)(F)F)cc3)n2)c1 [Entry 28, N-{2-[3-(ethyloxy)phenyl]ethyl}-2-({[({4-[(trifluoromethyl)oxy]phenyl}oxy)acetyl]amino}methyl)-1,3-thiazole-4-carboxamide] as the molecule, how does the pIC50 read?
The pIC50 was 6.30 to 7.30.

O=C(COc1ccc(OC(F)(F)F)cc1)NCc1nc(C(=O)N2CCC3CCCCC3C2)cs1 (stereo not shown) [Entry 294, N-{[4-(octahydroisoquinolin-2(1H)-ylcarbonyl)-1,3-thiazol-2-yl]methyl}-2-({4-[(trifluoromethyl)oxy]phenyl}oxy)acetamide] was tested. Which pIC50 did it give?
The pIC50 was 5.70 to 6.30.

With O=C(COc1ccc(OC(F)(F)F)cc1)NCc1nc(C(=O)NCCC(c2ccccc2)c2ccccc2)cs1 [Entry 260, N-(3,3-diphenylpropyl)-2-({[({4-[(trifluoromethyl)oxy]phenyl}oxy)acetyl]amino}methyl)-1,3-thiazole-4-carboxamide] as the molecule, how does the pIC50 read?
The pIC50 was 5.70 to 6.30.

With CSc1ccc(CC(=O)NCc2nc(C(=O)NCCc3cccc(Cl)c3)cs2)cc1 [Entry 232, N-[2-(3-chlorophenyl)ethyl]-2-[({[4-(methylthio)phenyl]acetyl}amino)methyl]-1,3-thiazole-4-carboxamide] as the molecule, how does the pIC50 read?
The pIC50 was 5.70 to 6.30.

CCOC(=O)N1CCC(NC(=O)c2csc(CNC(=O)COc3ccc(OC(F)(F)F)cc3)n2)CC1 [Entry 283, ethyl 4-({[2-({[({4-[(trifluoromethyl)oxy]phenyl}oxy)acetyl]amino}methyl)-1,3-thiazol-4-yl]carbonyl}amino)piperidine-1-carboxylate] was tested. Which pIC50 did it give?
Its pIC50 is 5.70 to 6.30.

Cc1onc(-c2ccccc2)c1CNC(=O)c1csc(CNC(=O)COc2ccc(OC(F)(F)F)cc2)n1 [Entry 135, N-[(5-methyl-3-phenylisoxazol-4-yl)methyl]-2-({[({4-[(trifluoromethyl)oxy]phenyl}oxy)acetyl]amino}methyl)-1,3-thiazole-4-carboxamide] was tested. Which pIC50 did it give?
Its pIC50 is 6.30 to 7.30.

With CC(C)c1ccc(CC(=O)NCc2nc(C(=O)NCCc3cccc(Cl)c3)cs2)cc1 [Entry 50, N-[2-(3-chlorophenyl)ethyl]-2-[({[4-(1-methylethyl)phenyl]acetyl}amino)methyl]-1,3-thiazole-4-carboxamide] as the molecule, how does the pIC50 read?
The pIC50 was 6.30 to 7.30.

With O=C(COc1ccc(OC(F)(F)F)cc1)NCc1nc(C(=O)NCCC2=CCCCC2)co1 [Entry 176, N-(2-cyclohex-1-en-1-ylethyl)-2-({[({4-[(trifluoromethyl)oxy]phenyl}oxy)acetyl]amino}methyl)-1,3-oxazole-4-carboxamide] as the molecule, how does the pIC50 read?
Its pIC50 is 6.30 to 7.30.

With Cc1ccsc1CNC(=O)c1csc(CNC(=O)COc2ccc(OC(F)(F)F)cc2)n1 [Entry 133, N-[(3-methyl-2-thienyl)methyl]-2-({[({4-[(trifluoromethyl)oxy]phenyl}oxy)acetyl]amino}methyl)-1,3-thiazole-4-carboxamide] as the molecule, how does the pIC50 read?
Its pIC50 is 6.30 to 7.30.

How did the pIC50 turn out when COc1ccccc1CNC(=O)c1csc(CNC(=O)c2cccnc2Oc2ccc(Cl)cc2)n1 [Entry 198, 2-[(4-chlorophenyl)oxy]-N-({4-[({[2-(methyloxy)phenyl]methyl}amino)carbonyl]-1,3-thiazol-2-yl}methyl)pyridine-3-carboxamide] was run?
Its pIC50 is 6.30 to 7.30.

COCCNC(=O)c1csc(CNC(=O)COc2ccc(OC(F)(F)F)cc2)n1 [Entry 287, N-[2-(methyloxy)ethyl]-2-({[({4-[(trifluoromethyl)oxy]phenyl}oxy)acetyl]amino}methyl)-1,3-thiazole-4-carboxamide] was tested. Which pIC50 did it give?
Its pIC50 is 5.70 to 6.30.

With O=C(COc1ccc(OC(F)(F)F)cc1)NCc1nc(C(=O)NCCc2ccccc2Cl)cs1 [Entry 104, N-[2-(2-chlorophenyl)ethyl]-2-({[({4-[(trifluoromethyl)oxy]phenyl}oxy)acetyl]amino}methyl)-1,3-thiazole-4-carboxamide] as the molecule, how does the pIC50 read?
The pIC50 was 6.30 to 7.30.

How did the pIC50 turn out when Cc1ccc(CCNC(=O)c2csc(CNC(=O)COc3ccc(OC(F)(F)F)cc3)n2)cc1 [Entry 36, N-[2-(4-methylphenyl)ethyl]-2-({[({4-[(trifluoromethyl)oxy]phenyl}oxy)acetyl]amino}methyl)-1,3-thiazole-4-carboxamide] was run?
The pIC50 was 6.30 to 7.30.

How did the pIC50 turn out when O=C(COc1ccc(OC(F)(F)F)cc1)NCc1nc(C(=O)N[C@@H](Cc2ccccc2)C(=O)N2CCCC2)cs1 [Entry 91, N-[(1S)-2-oxo-1-(phenylmethyl)-2-pyrrolidin-1-ylethyl]-2-({[({4-[(trifluoromethyl)oxy]phenyl}oxy)acetyl]amino}methyl)-1,3-thiazole-4-carboxamide] was run?
Its pIC50 is 6.30 to 7.30.

NCc1nc(C(=O)NCCc2cccc(Cl)c2)cs1 [Entry 300, 2-(aminomethyl)-N-[2-(3-chlorophenyl)ethyl]-1,3-thiazole-4-carboxamide] was tested. Which pIC50 did it give?
The pIC50 was under 5.70.

How did the pIC50 turn out when C[C@@H]1[C@@H](NC(=O)c2coc(CNC(=O)COc3ccc(OC(F)(F)F)cc3)n2)C[C@H]2C[C@@H]1C2(C)C [Entry 89, 2-({[({4-[(trifluoromethyl)oxy]phenyl}oxy)acetyl]amino}methyl)-N-[(1S,2S,3S,5R)-2,6,6-trimethylbicyclo[3.1.1]hept-3-yl]-1,3-oxazole-4-carboxamide] was run?
The pIC50 was 6.30 to 7.30.

How did the pIC50 turn out when COc1cccc(CNC(=O)c2csc(CNC(=O)COc3ccc(OC(F)(F)F)cc3)n2)c1OC [Entry 11, N-{[2,3-bis(methyloxy)phenyl]methyl}-2-({[({4-[(trifluoromethyl)oxy]phenyl}oxy)acetyl]amino}methyl)-1,3-thiazole-4-carboxamide] was run?
The pIC50 was over 7.30.

With O=C(COc1ccc(OC(F)(F)F)cc1)NCc1nc(C(=O)NCc2ccc(Cl)cc2)cs1 [Entry 227, N-[(4-chlorophenyl)methyl]-2-({[({4-[(trifluoromethyl)oxy]phenyl}oxy)acetyl]amino}methyl)-1,3-thiazole-4-carboxamide] as the molecule, how does the pIC50 read?
The pIC50 was 5.70 to 6.30.

O=C(COc1ccc(OC(F)(F)F)cc1)NCc1nc(C(=O)NCCC2=CCCCC2)cs1 [Entry 35, N-(2-cyclohex-1-en-1-ylethyl)-2-({[({4-[(trifluoromethyl)oxy]phenyl}oxy)acetyl]amino}methyl)-1,3-thiazole-4-carboxamide] was tested. Which pIC50 did it give?
The pIC50 was 6.30 to 7.30.

How did the pIC50 turn out when COc1cc(CCNC(=O)c2csc(CNC(=O)COc3ccc(OC(F)(F)F)cc3)n2)cc(OC)c1 [Entry 30, N-{2-[3,5-bis(methyloxy)phenyl]ethyl}-2-({[({4-[(trifluoromethyl)oxy]phenyl}oxy)acetyl]amino}methyl)-1,3-thiazole-4-carboxamide] was run?
Its pIC50 is 6.30 to 7.30.

How did the pIC50 turn out when COc1ccccc1CNC(=O)c1csc(CN)n1 [Entry 304, 2-(aminomethyl)-N-{[2-(methyloxy)phenyl]methyl}-1,3-thiazole-4-carboxamide] was run?
Its pIC50 is under 5.70.

How did the pIC50 turn out when CC1CCC(NC(=O)c2csc(CNC(=O)COc3ccc(OC(F)(F)F)cc3)n2)CC1 (stereo not shown) [Entry 140, N-(4-methylcyclohexyl)-2-({[({4-[(trifluoromethyl)oxy]phenyl}oxy)acetyl]amino}methyl)-1,3-thiazole-4-carboxamide] was run?
Its pIC50 is 6.30 to 7.30.
